We go through one compound from patent US10085955B2, “Methods and compositions for treatment of demyelinating diseases” (Pathologica LLC, priority 2013, dated 2018).

The test system of data set [1] is MOG-induced experimental autoimmune encephalomyelitis (EAE). Put plainly: Third MOG EAE protocol (MGBG, fingolimod and combination). It is filed as in vivo, C57BL/6 mice. Particulars: MGBG 30 mpk twice-daily, fingolimod 0.1 mpk once-daily, or both. The text has this: An experimental murine model of multiple sclerosis employing a myelin oligodendrocyte glycoprotein (MOG) peptide to induce experimental autoimmune encephalomyelitis (EAE) was employed to determine the efficacy of MGBG in preventing and treating that disease. Because of its many similarities to MS, EAE is commonly used to study pathogenesis of autoimmunity, CNS inflammation, demyelination, cell trafficking, and tolerance induction. EAE is characterized by paralysis (in some models the paralysis is remitting-relapsing), CNS inflammation and demyelination. EAE is mediated primarily by dendritic cells, myelin-specific T cells (e.g. Th1 and Th17), and M1 macrophages. B cells may also play a role in some models of EAE. Body weight also tracks disease progression. EAE is induced in C57BL/6 mice by immunization with MOG35-55 or MOG1-125 in CFA emulsion followed by administration of pertussis toxin (PTX) in PBS. The emulsion provides antigen which initiates expansion and differentiation of MOG-specific autoimmune T cells. PTX enhances EAE development by providing additional adjuvant and facilitating entrance of autoimmune T cells into the CNS.
Chronic EAE develops in C57BL/6 mice after immunization with an emulsion of MOG35-55/CFA or MOG1-125/CFA followed by injection of pertussis toxin. This model is used to test the potential of compounds to prevent or mitigate EAE disease. It can be run with the compound dosed from the time of immunization (prophylactic treatment), or with the aim of reversing the course of disease and facilitating recovery by dosing the compound from the time of EAE onset (therapeutic treatment). The model uses female C57BL/6 mice of age 10 to 14 weeks at the start of the study. Typically, EAE develops 8-18 days after immunization. EAE development is usually followed for 4 weeks (28 days) after immunization.
Clinically, EAE progression is scored on a scale of 0 to 5, wherein each score represents the following clinical observations:
Inflammatory foci of approximately 20 cells were counted in each H&E stained section. When inflammatory infiltrates consisted of more than 20 cells, an estimate was made of how many foci of 20 cells were present.
The demyelination score represents an estimate of demyelinated area for each section as follows:
Ten week old female C57BL/6 mice weighing 18-23 g (Taconic Farms) were divided into four groups: mock immunized (n=3) and three MOG-immunized groups receiving MGBG at 30 mpk BID (as the di-HCl monohydrate with a correction factor of 1.49), […] dose, or 0.9% saline vehicle BID (n=12 each). […]

On the set-up of data set [2]: species or system beagle dogs. The settings on record: male, beagle, dog, in vivo. As for the experimental part:
Two groups of three male beagle dogs weighing 9.0-10.7 kg and aged 8-30 months were fasted overnight before being administered the test article, MGBG, as either a single bolus intravenous dose of 1 mg/kg (Group 1) or as a single oral gavage dose of 10 mg/kg (Group 2). Dose formulation analysis verified administered dose solutions as within 17% of targeted concentrations of 1 and 10 mg/kg for Groups 1 and 2, respectively.
Blood samples (approximately 2.0 mL) were collected for plasma MGBG concentration measurement from all intravenously dosed animals prior to dosing and at approximately T=0.083 (5 min), 0.25 (15 min), 0.5 (30 min), 1, 2, 4, 8, and 24 hours after dosing. A similar procedure was used with orally dosed animals was used, except that collection took place at T=1, 2, 4, 8, 12, 24, and 36 hours after dosing. The samples were centrifuged under refrigerated conditions following completion of sample collection at each interval. The resulting plasma was separated and stored frozen at approximately −70° C. until analysis.

Data set [3] is described as follows: Multi-species allometric scaling, predicted human pharmacokinetic parameters. Also on record: species or system humans. The settings on record: based on Mouse, Dog, Rhesus. The text has this:
Multi-species allometric scaling based on pharmacokinetic parameters disclosed in Tables 2 and 3 was employed to calculate predicted pharmacokinetic parameters in humans according to methods known in the art. See, e.g., Ings R M, “Interspecies scaling and comparisons in drug development and toxicokinetics,” Xenobiotica, 1990 November; 20(11):1201-31 and Khor, S P et al., “Dihydropyrimidine dehydrogenase inactivation and 5-fluorouracil pharmacokinetics: allometric scaling of animal data, pharmacokinetics and toxicodynamics of 5-fluorouracil in humans,” Cancer Chemother Pharmacol (1997) 39(3): 833-38. Expected values are given below in Tables 6 and 7.

Entries after “also recorded” stand apart in the source; their conditions may differ. Where two headings read alike, the source gives them in different places.

In the case of `CC(/C=N/NC(=N)N)=N\NC(=N)N` [MGBG, 1,1′ [methylethanediylidene]dinitrilodiguanidine], the “clinical scores / development of EAE” value in data set [1] (third 28-day study) is given as “suppressed EAE comparably to 0.1 mpk fingolimod; also recorded: equivalently efficacious in preventing EAE development”. Moreover, in data set [1] (third study), the “cellular apoptosis in spinal cord” value is on record as “equivalently efficacious in reducing apoptosis”, the “number of inflammatory foci in spinal cord” value was “equivalently efficacious in reducing the number of inflammatory foci” and the spinal cord demyelination entry was “equivalently efficacious in reducing demyelination”. Moreover, in data set [2] (iv, 1 mg/kg), the Clobs turned out to be 13.7 mL/min/kg and the VSSobs is 14.6 L/kg. In data set [2] (po, 10 mg/kg), this compound had a Clobs of 8.29 mL/min/kg and a Vd of 14.6 L/kg. For the same compound, in data set [3] (IV), the CL was 7.9 mL/min/kg, the VSS is recorded as 9.1 L/kg and the t1/2 is reported as 13.3 h. In data set [3] (IV, Rat), the CL is recorded as 7.7 mL/min/kg, the VSS is 9.0 L/kg and the t1/2 is given as 13.4 h. Further, in data set [3] (ORAL), the CL is recorded as 20.9 mL/min/kg, the VSS was 41.6 L/kg and the t1/2 is 23.0 h. Besides, in data set [3] (ORAL, Rat), the CL was 21.0 mL/min/kg, the VSS is on record as 42.4 L/kg and the t1/2 is recorded as 23.3 h.
